Reference: US9763910B1, “Combination therapy for treating cancer” (Huanggang Normal University, priority 2016, dated 2017)

Experiments:
[1] = tested on: CL1-5 human lung cancer cells engrafted in BALB/c nude mice; experiment: Tumor growth in CL1-5 cell-engrafted BALB/c nude mice; conditions: CL1-5 engrafted nude mice
Procedure: The study was carried out as follows: inoculating BALB/c mice with of the CL1-5 human lung cancer cells; dividing the mice into 4 groups 7 days after inoculation with 8 mice in each group and treating them once every two days for 14 days respectively with (i) 0.4 ml of 10% DMSO, (ii) 0.4 ml of 10% DMSO containing 25 μmol of docetaxel, (iii) 0.4 ml of 10% DMSO containing 15.5 μmol of 5-demethylnobiletin, and (iv) 0.4 ml of 10% DMSO containing 25 μmol of docetaxel and 15.5 μmol of 5-demethylnobiletin; growing mice without any treatment for another 14 days; measuring tumor sizes after animal sacrificing.
The experimental BALB/c nude mice were divided into 4 groups, with 8 in each group. Each mouse was inoculated with 0.1 ml of the CL1-5 human lung cancer cells at a density of 10^6 cells/ml. 7 days after of the inoculation, the 4 groups of mice were infused respectively with (i) 27 μl of 10% DMSO; (ii) 25 μmol of docetaxel in a 10% DMSO solution (iii) 15.5 μmol of 5-demethylnobiletin in a 10% DMSO solution; and (iv) 25 μmol of docetaxel and 15.5 μmol of 5-demethylnobiletin in a 10% DMSO solution at a frequency of once every 2 days for 14 days. […]
[1−(fa)2], (fa)1 and (fa)2 are inhibition rates of drug1 and drug2, respectively, and (fa)1,2 is the calculated inhibition rate of combining drug1 and drug2, which is also a theoretical additive effect. […]

CL1-5 lung cancer cells = experiment: Growth inhibition of CL1-5 lung cancer cells (cell viability by absorbance); conditions: Homo sapiens, CL1-5, read-out: IC50 rate of docetaxel for the CL1-5 cells
Procedure: The CL1-5 cells were cultured in RPMI 1640 medium containing 100 U/ml penicillin, 100 μg/ml streptomycin, and 10% fetal bovine serum at a temperature of 37° C. and with carbon dioxide at a concentration of 5%. The cultured cells were divided into 8 treatment groups. 4 groups were treated only with docetaxel at different concentrations: 3.125, 6.25, 12.5, and 25.0 nmol of docetaxel per liter of the medium in 100 μl of 10% DMSO solution.

[2] = assay type: in vivo, mouse
Procedure: BALB/c nude mice were divided into two groups, with 8 mice in each group. […] Then, liver, spleen, and kidney weights of the mice in each group were measured and blood was collected. Following at RT for 1 h, the blood was centrifuged at 3000 rpm for 10 min at 4° C. to collect serum before stored at −80° C. Clinical chemistry measurements, e.g., levels of AST, ALT, triglyceride (TG), and total cholesterol (TC), were measured by an automatic biochemical analyzer.

[3] = 15.5 μmol once every 2 days for 14 days, sacrificed after another 14 days
[4] = serum, 15.5 μmol once every 2 days for 14 days

SMILES	experimental inhibition rate (fa) of tumor growth [1] [%]	IC50 (CL1-5 lung cancer cells) [nM]	Kidney weight [2, 3] [g]	Liver weight [2, 3] [g]	Spleen weight [2, 3] [g]	difference between control group and treatment group in organ weights and clinical chemistry ([2]; Table 1 parameters)	GOT [2, 4] [Unit/L]	GPT [2, 4] [Unit/L]	TC [2, 4] [mg/dL]	TG [2, 4] [mg/dL]
CC(=O)O[C@@]12CO[C@@H]1C[C@H](O)[C@@]1(C)C(=O)[C@H](O)C3=C(C)[C@@H](OC(=O)[C@H](O)[C@@H](NC(=O)OC(C)(C)C)c4ccccc4)C[C@@](O)([C@@H](OC(=O)c4ccccc4)[C@H]21)C3(C)C [docetaxel, 1,7β,10β-trihydroxy-9-oxo-5β,20-epoxytax-11-ene-2α,4,13α-triyl 4-acetate 2-benzoate 13-{(2R,3S)-3-[(tert-butoxycarbonyl)amino]-2-hydroxy-3-phenylpropanoate}, reference compound]	47.6	28.4	–	–	–	–	–	–	–	–
COc1ccc(-c2cc(=O)c3c(O)c(OC)c(OC)c(OC)c3o2)cc1OC [5-Hydroxy-6,7,8,3′,4′-pentamethoxyflavone]	38	–	0.90 ± 0.06	3.93 ± 0.28	0.21 ± 0.04	no significant difference	91.2 ± 9.8	22.8 ± 5.2	77.1 ± 4.9	109.5 ± 36.9
